Experimental findings from paper PMC8621770, “New Compounds with Bioisosteric Replacement of Classic Choline Kinase Inhibitors Show Potent Antiplasmodial Activity” (Pharmaceutics, 2021) are described below.

Molecules are shown by their SMILES. Read-outs that look alike come from different tables or passages of the source.

For one series, the system named is P. falciparum strain 3D7. In words: Antimalarial activity, P. falciparum lactate dehydrogenase growth inhibition assay. The series is classed as cell-based, Plasmodium falciparum. Particulars: for IC50: Plasmodium falciparum; for fold decrease in antimalarial activity with respect to the reference compounds BR-23 / BR-25: Fg-9, Fa-21, Fg-14 vs BR-23, Ff-1, Ff-7, Ff-3 vs BR-25. Here is the method:
Parasites of the P. falciparum strain 3D7 were grown in fresh group 0 positive human erythrocytes, obtained from the Centro Regional de Transfusion Sanguínea-SAS (Granada, Spain) and suspended at 5% haematocrit in RPMI 1640 containing 2% human serum, 0.2% NaHCO3, 0.5% Albumax II, 150 μM hypoxanthine, and […] gentamicin. Flasks were incubated at 37 °C, under 5% CO2 and 95% air mixture. […] The stock culture was then diluted with complete medium and non-parasitized erythrocytes to yield a haematocrit of 2% and parasitemia of 0.25%. Stock solutions of the test drugs were prepared at an initial concentration of 200 mM in DMSO, serially diluted and dispensed into triplicate in 96-well plates to yield final concentrations ranging from 0.0039 to 2 μM. The final well volume was 200 μL with a final concentration of DMSO 0.001%. Each plate also included positive growth controls, where only medium were added, and negative growth controls with 100 nM of chloroquine. […] A multidrop dispenser was used to add 50 μL of synchronized parasite culture per well. After 72 h of growth in presence of test compounds, the plates were stored frozen at −20 °C for at least 24 h. Next, they were thawed at room temperature. Parasite growth inhibition assays and IC50 determinations were carried out following the P. falciparum lactate dehydrogenase assay where parasite viability is quantified by measuring LDH activity upon APAD+ addition, a cofactor that is specific to the Plasmodium enzyme. To evaluate LDH activity, 140 μL of freshly made reaction mix, containing 143 mM sodium L-lactate, 143 μM APAD, 178.75 μM NBT, 1 U/mL diaphorase, 0.7% Tween 20 and 100 mM Tris-HCl (pH 8.0) were dispensed into plates. After 10 min of incubation in the dark at room temperature, absorbance was measured at 630 nm with a vmax precision multiwell plate reader from Molecular Devices, by using the accompanying SOFT maxPro software for analysis.

Another series concerns the target T1, PfCK (Plasmodium falciparum, UniProt Q8IM71).
T1 construct: A truncated form of PfCK (Δ79-440) featuring an N-terminal 6× His-tag; 6xHis (N); host or cells: Escherichia coli BL21 (DE3) Star
Description: Spectrophotometric coupled enzymatic assay for PfCK activity (substrate choline). In kind it is biochemical. Particulars: for remaining activity at 25 µM: read-out: PfCK Fractional Activity at 25 µM; for IC50: IC50 PfCK b (compound concentration required to inhibit PfCK enzyme by 50%), substrate choline 4 mM, ATP 2 mM. Here is the method: A truncated form of PfCK (Δ79-440) featuring an N-terminal 6× His-tag was purchased from Genescript (Piscataway, NJ, USA), cloned into a pET-28a vector and transformed into Escherichia coli BL21 (DE3) Star cells (Invitrogen, Carlsbad, CA, USA). The transformed bacteria were cultured in Luria-Bertani (LB) medium at 37 °C until OD600 = 0.6 and the expression was induced with 1 mM isopropyl β-D-1-thiogalactopyranoside (IPTG). The cell culture was grown overnight at 20 °C and 180 rpm. Cells were pelleted by centrifugation at 10,000 rpm, resuspended in 50 mM Tris/HCl pH 7.5, 500 mM NaCl, 0.2 mM phenylmethylsulphonyl fluoride (PMSF, Sigma Aldrich, St. Luis, MO, USA), DNase (Sigma Aldrich, St. Luis, MO, USA), 0.5 mM β-mercaptoethanol (Sigma Aldrich, St. Luis, MO, USA) and sonicated. Separation of the soluble from the insoluble fraction was obtained by centrifugation at 15,000 rpm and 4 °C. The target enzyme was purified by a two-step purification protocol. In the first step, the cell lysate was incubated for 45 min with Ni-NTA resin (Qiagen, Venlo, The Netherlands) in a gravity column. Then, the column was washed with 40 column volumes (CV) of 50 mM Tris/HCl pH 7.5, 300 mM NaCl, 10 mM imidazole and 1 CV of 50 mM Tris/HCl pH 7.5, 300 mM NaCl, 40 mM imidazole. Finally, the His-tagged enzyme was eluted from the column using a 50 mM Tris/HCl pH 7.5, 300 mM NaCl, 400 mM imidazole buffer. A subsequent size-exclusion chromatography step was implemented to further polish the sample using a HiPrep 26/60 Sephacryl 100 HR column (GE Healthcare, Little Chalfont, Buckinghamshire, UK) previously equilibrated with 20 mM Tris/HCl pH 7.5, 150 mM NaCl buffer. This second purification step afforded a pure protein sample. The protein production yield was estimated to be nearly 2.5 mg of recombinant enzyme per liter of bacterial culture.
A spectrophotometric 96-well plate assay for PfCK activity was established based on an assay previously described. The reaction mix was composed as follows: 100 mM Tris/HCl pH 7.5, 100 mM KCl, 10 mM MgCl2, 0.5 mM phosphoenolpyruvate, 0.25 mM NADH, 4 U of pyruvate kinase, 5 U lactate dehydrogenase, 2 mM ATP, 4 mM choline chloride and different concentrations of the selected compounds. All the necessary compounds for the assay were purchased from Sigma Aldrich (St. Luis, MO, USA) and the final assay volume was 200 μL. The enzymatic reaction was initiated by the addition of the enzyme at less than 10 nM concentration and the reaction rates were measured by monitoring the decrease in the absorbance at 340 nm for 20 min at room temperature using a Spark10M instrument (Tecan). Finally, the IC50 values for each compound were determined by plotting the enzyme fractional activity (f.a.) against the logarithm of compound concentration (log[I]). Curve-fitting was performed with a dose-response curve from Origin (OriginLab Corporation, Northampton, MA, USA), using the following equation: f.a.=1/1+10^logIC50−logI
All data points were collected in triplicate and the final dose-response curves were plotted with MATLAB (R2018a (9.4.0.813654), 2018, MathWorks, Natick, MA, USA). See curves in Figure S1 in Supplementary Materials.

Setting [1] is: Erythrocyte, P. falciparum 3D7 in human erythrocytes, 72 h, LDH readout, read-out: IC50 a (In vitro IC50 values against P. falciparum).

T1 sequence (Q8IM71 entry or part of it): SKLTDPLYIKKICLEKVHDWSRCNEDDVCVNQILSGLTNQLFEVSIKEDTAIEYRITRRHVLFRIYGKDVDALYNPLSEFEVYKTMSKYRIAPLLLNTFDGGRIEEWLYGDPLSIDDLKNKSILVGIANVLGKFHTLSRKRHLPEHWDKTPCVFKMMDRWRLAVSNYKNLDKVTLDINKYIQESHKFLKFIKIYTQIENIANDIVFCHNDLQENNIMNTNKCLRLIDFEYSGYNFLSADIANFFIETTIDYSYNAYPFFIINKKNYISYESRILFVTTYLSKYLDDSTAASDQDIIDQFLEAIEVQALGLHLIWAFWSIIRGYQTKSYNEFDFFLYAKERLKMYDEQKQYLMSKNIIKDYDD

Broadly, the IC50 is the concentration at which inhibition is half-maximal. As a reminder, the melting point is the temperature, or range, at which the solid turns liquid. In the case of `[Br-].[Br-].c1cc2c(s1)c(N1CCCCCC1)nc[n+]2Cc1ccc(-c2ccc(C[n+]3cnc(N4CCCCCC4)c4sccc43)cn2)nc1` [Fa-26, 1,1’-([2,2’-bipyridine]-5,5’-diylbis(methylene))bis(4-(azepan-1-yl)thieno[3,2-d]pyrimidin-1-ium) bromide], the melting point fell in the range of 310 to 312 °C. In addition, the IC50 in the series on P. falciparum strain 3D7 (setting [1]) came to 209 nM. In addition, the remaining activity at 25 µM on PfCK was determined as 78 ± 8.13%.
For `[Br-].[Br-].c1cc2c(s1)c(N1CCCCC1)nc[n+]2Cc1ccc(-c2ccc(C[n+]3cnc(N4CCCCC4)c4sccc43)cn2)nc1` [Fa-27, 1,1’-([2,2’-bipyridine]-5,5’-diylbis(methylene))bis(4-(piperidin-1-yl)thieno[3,2-d]pyrimidin-1-ium) bromide], in that order: 307 to 309 °C, 120 nM and 82.6 ± 4.9%.
For `[Br-].[Br-].c1cc2c(s1)c(N1CCCCC1)nc[n+]2Cc1ccc(OCCOc2ccc(C[n+]3cnc(N4CCCCC4)c4sccc43)cc2)cc1` [Fa-28, 1,1′-(((ethane-1,2-diylbis(oxy))bis(4,1-phenylene))bis(methylene))bis(4-(piperidin-1-yl)thieno[3,2-d]pyrimidin-1-ium) bromide], in that order: 198 to 200 °C, 47.1 nM and 84.4 ± 7.53%.
`[Br-].[Br-].c1cc2c(s1)c(N1CCCCCC1)nc[n+]2Cc1ccc(CCCCc2ccc(C[n+]3cnc(N4CCCCCC4)c4sccc43)cc2)cc1` [Fa-29, (1,1’((butane1,4diylbis(4,1phenylene))bis(methylene))bis(4-(azepan-1-yl)thieno[3,2-d]pyrimidin-1-ium)) bromide] gave a melting point of 268 to 270 °C. The IC50 in the series with P. falciparum strain 3D7 (3D7, Erythrocyte, 72 h, read-out: IC50 a (In vitro IC50 values against P. falciparum)) stood at 55.6 nM. Moreover, at PfCK, the half-inhibitory concentration (IC50) is 4640 ± 200 nM and the remaining activity at 25 µM turned out to be 46.7 ± 9.49%.
With `[Br-].[Br-].c1cc2c(s1)c(N1CCCCC1)nc[n+]2Cc1ccc(CCCCc2ccc(C[n+]3cnc(N4CCCCC4)c4sccc43)cc2)cc1` [Fa-33, 1,1’-((butane-1,4-diylbis(4,1-phenylene))bis(methylene))bis(4-(piperidin-1-yl)thieno[3,2-d]pyrimidin-1-ium) bromide], the melting point was in the range of 276 to 278 °C. Besides, in the series with P. falciparum strain 3D7 (setting [1]), the IC50 was 43.9 nM. Besides, at PfCK, the remaining activity at 25 µM worked out at 68.8 ± 6.03%.
The corresponding values for `[Br-].[Br-].c1cc2c(s1)c(N1CCCC1)cc[n+]2Cc1ccc(OCCOc2ccc(C[n+]3ccc(N4CCCC4)c4sccc43)cc2)cc1` [Ff-2, 4,4’-(((ethane-1,2-diylbis(oxy))bis(4,1-phenylene))bis(methylene))bis(7-(pyrrolidin-1-yl)thieno[3,2-b]pyridin-4-ium) bromide] are 280 to 282 °C, 74 nM and 81.8 ± 3.93%.
`[Br-].[Br-].c1cc2c(N3CCCC3)nc[n+](Cc3ccc(OCCOc4ccc(C[n+]5cnc(N6CCCC6)c6ccsc65)cc4)cc3)c2s1` [Ff-4, 1,1’-(((ethane-1,2-diylbis(oxy))bis(4,1-phenylene))bis(methylene))bis(4-(pyrrolidin-1-yl)thieno[2,3-d]pyrimidin-1-ium) bromide] showed a melting point of 193 to 195 °C. In addition, the IC50 in the series on P. falciparum strain 3D7 (3D7, Erythrocyte, infected erythrocytes, P. falciparum, read-out: antimalarial activity (IC50), as given in the text) was around 11 nM. For the same compound, the half-inhibitory concentration (IC50) in the series with P. falciparum strain 3D7 (setting [1]) was found to be 11.5 nM. At PfCK, the IC50 was 37400 ± 3240 nM and the remaining activity at 25 µM came to 90.7 ± 4.57%.
As for `[Br-].[Br-].c1cc2c(N3CCCCC3)nc[n+](Cc3ccc(OCCOc4ccc(C[n+]5cnc(N6CCCCC6)c6ccsc65)cc4)cc3)c2s1` [Ff-5, 1,1′-(((ethane-1,2-diylbis(oxy))bis(4,1-phenylene))bis(methylene))bis(4-(piperidin-1-yl)thieno[2,3-d]pyrimidin-1-ium) bromide], the melting point was above 280 °C. The IC50 in the series on P. falciparum strain 3D7 (setting [1]) is 22.4 nM. In addition, on PfCK, the remaining activity at 25 µM was determined as 91.1 ± 4.27%.
In turn, `[Br-].[Br-].c1cc2c(s1)c(N1CCCC1)nc[n+]2Cc1ccc(CCCCc2ccc(C[n+]3cnc(N4CCCC4)c4sccc43)cc2)cc1` [Ff-7, 1,1’-((butane-1,4-diylbis(4,1-phenylene))bis(methylene))bis(4-(pyrrolidin-1-yl)thieno[3,2-d]pyrimidin-1-ium) bromide] returned a melting point of 215 to 217 °C. The “fold decrease in antimalarial activity with respect to the reference compounds BR-23 / BR-25” value in the series with P. falciparum strain 3D7 is listed as 10 fold. Moreover, in the series with P. falciparum strain 3D7 (setting [1]), the IC50 amounted to 21.9 nM. Besides, at PfCK, 13300 ± 3820 nM corresponded to half-maximal inhibition (IC50) and the remaining activity at 25 µM amounted to 55 ± 4.07%.
`[Br-].[Br-].c1cc2c(s1)c(N1CCCC1)nc[n+]2Cc1ccc(OCCOc2ccc(C[n+]3cnc(N4CCCC4)c4sccc43)cc2)cc1` [Ff-8, 1,1’-(((ethane-1,2-diylbis(oxy))bis(4,1-phenylene))bis(methylene))bis(4-(pyrrolidin-1-yl)thieno[3,2-d]pyrimidin-1-ium) bromide] gave a melting point of 217 to 219 °C. The IC50 with P. falciparum strain 3D7 (setting [1]) was determined as 35.2 nM. Further, the remaining activity at 25 µM on PfCK was 63.1 ± 6.74%.
Compound `[Br-].[Br-].c1cc2c(N3CCCC3)nc[n+](Cc3ccc(-c4ccc(C[n+]5cnc(N6CCCC6)c6ccsc65)cc4)cc3)c2s1` [Fg-14, 1,1’-([1,1’-biphenyl]-4,4’-diylbis(methylene))bis(4-(pyrrolidin-1-yl)thieno[2,3-d]pyrimidin-1-ium) bromide] returned a melting point of 300 to 302 °C. For the same compound, in the series on P. falciparum strain 3D7, the “fold decrease in antimalarial activity with respect to the reference compounds BR-23 / BR-25” value was 10 fold. Also, the half-inhibitory concentration (IC50) in the series with P. falciparum strain 3D7 (setting [1]) is 20.6 nM.
Regarding `[Br-].[Br-].c1cc2c(N3CCCCCC3)nc[n+](Cc3ccc(CCc4ccc(C[n+]5cnc(N6CCCCCC6)c6ccsc65)cc4)cc3)c2s1` [Fg-19, 1,1’-((ethane-1,2-diylbis(4,1-phenylene))bis(methylene))bis(4-(azepan-1-yl)thieno[2,3-d]pyrimidin-1-ium) bromide], the melting point was 298 to 300 °C. For the same compound, the IC50 in the series on P. falciparum strain 3D7 (setting [1]) was determined as 71.5 nM.
